Experimental findings from paper PMC12682947, “Identification of New KCNT1‐Epilepsy Drugs by In Silico, Cell, and Drosophila Modeling” (Annals of Neurology, 2025) are described below.

What all share (type): in vivo, Drosophila melanogaster
Series [1] concerns Drosophila KCNT1 mutant line G288S. As to the kind of experiment: Bang-sensitive behavioral seizure assay, Drosophila KCNT1 mutant line G288S. The note with it: drug in food. An excerpt:
(§1) The Drosophila melanogaster lines carrying the WT human KCNT1 transgene (NM_020822_3) or KCNT1 mutant G288S, R398Q or R928C transgene placed downstream of the yeast UAS promoter, have been described previously.[11] WT or mutant human UAS‐KCNT1 flies were crossed to flies expressing the GAL4 transcriptional activator under the control of the GAD1 promoter (GABAergic driver, Bloomington stock number 51630 P2) to drive expression of KCNT1 in GABAergic neurons, involved in neuronal inhibition.[11]
(§2) The bang‐sensitive behavioral assay (also known as the banging assay) was used to test for the presence of a seizure phenotype in Drosophila.[11], [30] Experiments were performed and scored, as previously described,[11] with a minimum of 50 Drosophila tested for each genotype and drug concentration.
(§3) Four drugs were selected for in vivo analysis to determine their effects on the seizure phenotypes in transgenic Drosophila lines with human mutant KCNT1 channels. […]
(§4) In all experiments, experimenters were not blinded to variants or treatments, nor were samples randomly assigned to groups. Sample sizes were not calculated in advance and no data were excluded from the analysis. Data were analyzed using GraphPad Prism 9 software (San Diego, CA, USA). […] All data passed normality and lognormality Shapiro–Wilk tests, determined by GraphPad Prism 9. […]

For series [2], the system named is Drosophila KCNT1 mutant line R398Q. As to the kind of experiment: Bang-sensitive behavioral seizure assay, Drosophila KCNT1 mutant line R398Q. The note with it: drug in food.
Text: as §1, §2, §3, §4

Series [3] relates to Drosophila mutant KCNT1 lines (G288S, R398Q, R928C). Briefly: Bang-sensitive behavioral seizure assay, statements for all three Drosophila mutant KCNT1 lines. The note with it: for effect on seizure activity (in words): drug in food, 1 nM to 1 μM, each of the three mutant lines.
Text: as §1, §2
Four drugs were selected for in vivo analysis to determine their effects on the seizure phenotypes in transgenic Drosophila lines with human mutant KCNT1 channels. Bepridil, a nonselective KCNT1 inhibitor was included for comparison. Drosophila food with and without drugs was prepared as previously described.[11] All chemicals were obtained from Sigma‐Aldrich (Gillingham, UK) apart from antrafenine hydrochloride (Toronto Research Chemicals, Canada) and regorafenib (USP, Germany).
Drosophila crosses were set up, and the resulting embryos were collected, as previously described.[11] A range of concentrations of each drug dissolved in Drosophila food, between 0.001 μM and 1 μM, were used in the experiments. Multiple replicates were performed for each dosage of the drugs and controls. Controls were vehicle controlled (VC), which was the normal food with just the solvent ethanol present (1 μl/1 ml) in the Drosophila food, and normal food (NF) control where no drug or solvent (ethanol) was added in the Drosophila food.
In all experiments, experimenters were not blinded to variants or treatments, nor were samples randomly assigned to groups. Sample sizes were not calculated in advance and no data were excluded from the analysis. Data were analyzed using GraphPad Prism 9 software (San Diego, CA, USA). All values are reported as mean ± standard error of the mean (SEM). All data passed normality and lognormality Shapiro–Wilk tests, determined by GraphPad Prism 9. In the experiments analyzing the effects of drugs in Drosophila, statistical significance of differences between groups was determined using Brown‐Forsythe and Welch's analysis of variance (ANOVA) tests (Supplementary Table S3), assuming non‐equal SDs, followed by Dunnett's multiple comparisons tests (GraphPad Prism 9). The results of the Dunnett's multiple comparisons tests are shown in Supplementary Table S4, where “N” represents independent trials using independent fly crosses, with the total number of flies for each condition shown in brackets.

Structures are written as SMILES. Counter-ions that a name gives are not always drawn.

Regarding `O=C(OCCN1CCN(c2cccc(C(F)(F)F)c2)CC1)c1ccccc1Nc1ccnc2cc(C(F)(F)F)ccc12` [antrafenine], the “reduction of the seizure phenotype” value in series [1] and in series [2] was “at least 50%” in each case. Moreover, the “effect on seizure activity (in words)” value in series [3] was “significantly reduce the seizure activity”.

As for `CC(C)c1c(C(=O)Nc2ccccc2)c(-c2ccccc2)c(-c2ccc(F)cc2)n1CC[C@@H](O)C[C@@H](O)CC(=O)O` [atorvastatin], in series [3] (1 μM in food), the “viability of adult flies” value is “reduced viability”. Also, the “effect on seizure activity (in words)” value in series [3] was “did not show a significant effect”.

As for `Cc1c(O)cccc1C(=O)N[C@@H](CSc1ccccc1)[C@H](O)CN1C[C@H]2CCCC[C@H]2C[C@H]1C(=O)NC(C)(C)C` [nelfinavir mesylate], the “reduction of the seizure phenotype” value in series [1] and in series [2] was 50% each time. For the same compound, in series [3], the “effect on seizure activity (in words)” value was “significantly reduce the seizure activity”.

On to `CNC(=O)c1cc(Oc2ccc(NC(=O)Nc3ccc(Cl)c(C(F)(F)F)c3)c(F)c2)ccn1` [regorafenib], for which the “effect on seizure activity (in words)” value in series [3] is on record as “did not show a significant effect”.
